In patent publication US20140106380A1, “METHODS FOR IDENTIFYING INHIBITORS OF ABETA42 OLIGOMERS” (Merck Sharp & Dohme Crop., priority 2010, published 2014):

How the values were obtained:
Type in all cases: biochemical
[1] = biological target: T1, Aβ42 (Homo sapiens, UniProt P05067); experiment: Aβ42 CT AlphaLISA, inhibition of early oligomerization; details: for Aβ42 CT immunoreactivity: Aβ42 1 nM, oligomerization at 4° C. overnight, different buffers, AlphaLISA
T1 construct: Synthetic human Aβ1-42, purchased from American Peptide Company (Sunnyvale, Calif.); purchased American Peptide Company (Sunnyvale, Calif.); host or cells: chemically synthesised peptide
Protocol: To test a compound's effect on inhibition of early oligomerization, SI, or a different testing compound, was mixed with the Aβ42 solution to make solutions with final concentrations of SI from 0.1 μM to 10 mM (0.1 μM, 1 μM, 10 μM, 100 μM, 1 mM, and 10 mM) and Aβ42 from 1 nM to 10 μM (1 nM, 10 nM, 100 nM, 1 μM and 10 μM). For example, a 10 μM Aβ42 solution contained, respectively, 0 μM, 0.1 μM, 1 μM, 10 μM, 100 μM, 1 mM and 10 mM SI. The same SI concentration series was applied to other concentrations of the Aβ42 solution indicated above. The mixtures were either incubated at 4° C. overnight or room temperature for two to three hours, before being used in the immunoreactive assay. Similarly, the presence of Aβ42 oligomers was detected using an Aβ42 C-terminal (CT) AlphaLISA assay (Eglen et al., 2008, Curr. Chem. Genomics, 1:2-10), a bead based proximity assay, based upon an oxygen channeling technology. The assay was carried out in a 384 well plate using an AlphaLISA® Human Amyloid β 1-[…]42 Research Immunoassay Kit (PerkinElmer, Waltham, Mass.) according to the manufacturer's directions. To make a 2.5× AlphaLISA acceptor bead and biotinylated anti-Aβ42 antibody mixture, 5.5 μl acceptor beads conjugated to anti-Aβ42 (12F4) and 5.5 μl biotin-Aβ42 antibody (binds to a epitope away from the CT of Aβ42) were added to 1,089 μl 1S AlphaLISA buffer and mixed by brief vortexing. To each well of a 384-well plate, 8 μl of the mix and 2 μl of an Aβ42 sample were added, followed by gentle tapping of the plate to mix the solutions. The plate was incubated at room temperature for one hour. The streptavidin donor bead solution was made in a dark room under safety light by mixing 20.1 μl of streptavidin donor beads with 1,279 μl 1× AlphaLISA buffer. The streptavidin donor bead solution, which binds to the biotinylated anti-Aβ42 antibody, was then added (10 μl/well) to the plate, sealed with an adhesive aluminum membrane, and incubated at room temperature for 30 minutes. Incubation brought the donor and acceptor beads into close proximity. An immunoreactive signal was generated when the donor bead released a singlet oxygen that, when excited at 680nm, was transferred to the acceptor bead, resulting in a light emission at 610 nm. The immunoreactive signals were read with a multilabel plate reader (EnVision®, PerkinElmer, Waltham, Mass.). The presence of Aβ42 oligomers was determined by a corresponding decrease in the C-terminal immunosignal. Values for the AlphaLISA assays were graphed and analyzed with Prism GraphPad software. Similar to signals generated with ELISA, the extent of Aβ42 oligomerization is inversely correlated with the magnitude of the CT immunosignal in AlphaLISA. Values for the ELISA assays were graphed and analyzed with Prism GraphPad software.

[2] = biological target: T1, Aβ42; experiment: Dynamic light scattering of Aβ42 oligomerization; details: Aβ42 40 μM, 25 °C, in the presence of SI
Protocol: Dynamic light scattering (DLS), also known as also known as quasi-elastic laser light scattering, offered another methodology to determine Aβ42 oligomerization by measuring the size distribution profile and shape of particles in solution. […] Sample preparation for the DLS assay was performed in a bio-safety cabinet. All solutions and reagents were pre-filtered with a 0.1 μm Whatman filter (Whatman, Piscataway, N.J.). Aβ42 (100 μM) made in PBS from the 1 mM DMSO stock (Example 1) was filtered with a 0.2 μm filter (Whatman, Piscataway, N.J.) and diluted to 50 μM to 10 μM with PBS or water. The samples were added to the DLS plate (50 μl/well) in the presence or absence of compounds and incubated at room temperature for seven to eight hours. The plate was briefly centrifuged (1 minute at 3000 rpm) and placed in the DynaPro DLS plate reader (Wyatt Technology, Dernbach, Germany), in which different parameters (normalized intensity, hydrodynamic radius, molecular weight, relative molecular mass, percent polydispersity, and sum of square) of the Aβ42 oligomer samples were measured, and analyzed with Dynamics 7.0.0 software (Wyatt Technology, Dernbach, Germany).

[3] = biological target: T2, Aβ42 oligomers (Homo sapiens, UniProt P05067); experiment: Aβ42 CT immunoassay, metastability of pre-formed Aβ42 oligomers; details: addition to pre-formed Aβ42 oligomers, P<0.01 relative to samples without SI
T2 construct: Synthetic human Aβ1-42, purchased from American Peptide Company (Sunnyvale, Calif.); purchased American Peptide Company (Sunnyvale, Calif.); host or cells: chemically synthesised peptide
Protocol: The effect of an Aβ oligomer inhibitor on the metastability of Aβ42 oligomers prepared according Example 1 was evaluated as follows. […] Similarly, the presence of Aβ42 oligomers was detected using an Aβ42 C-terminal (CT) AlphaLISA assay (Eglen et al., 2008, Curr. Chem. Genomics, 1:2-10), a bead based proximity assay, based upon an oxygen channeling technology. […] The immunoreactive signals were read with a multilabel plate reader (EnVision®, PerkinElmer, Waltham, Mass.). The presence of Aβ42 oligomers was determined by a corresponding decrease in the C-terminal immunosignal. Values for the AlphaLISA assays were graphed and analyzed with Prism GraphPad software. […] Values for the ELISA assays were graphed and analyzed with Prism GraphPad software.

[4] = biological target: T2, Aβ42 oligomers; experiment: Aβ42 NT immunoassay (6E10-6E10); details: P<0.01
Protocol: The effect of an Aβ oligomer inhibitor on the metastability of Aβ42 oligomers prepared according Example 1 was evaluated as follows. A sample of the 1 mM Aβ42 DMSO stock was diluted to 10 μM or 100 μM in PBS or Neurobasal (e.g., 10 μl of 1 mM Aβ42 DMSO stock to make 1 ml 10 μM solution or 100 μl A(342 DMSO stock to make 1 ml 100 μM solution). After incubation at 37° C., the diluted oligomer solutions were mixed with scyllo-inositol (SI), a naturally occurring plant sugar alcohol found most abundantly in the coconut palm, to make a final concentrations of 1 μM or 10 μM Aβ42 containing 10 mM SI. The non-compound control oligomer sample contained no SI. The mixtures were incubated on ice for two to three hours to allow establishment of new equilibrium (metastability) among Aβ42 species. The stabilized mixtures were then utilized in the immunoreactive assays. An Aβ42 N-terminal (NT) oligomer ELISA was performed by adopting a 6E10-6E10 ELISA originally developed in house at Merck and also reported by others (Gandy et al., 2010, Ann. Neurol. 68: 220-230; Xia et al., 2009, Arch. Neurol. 66:190-199). […] The immunoreactive signals were read with a multilabel plate reader (EnVision®, PerkinElmer, Waltham, Mass.). The presence of Aβ42 oligomers was determined by a corresponding increase in the NT immunosignal. Values for the ELISA assays were graphed and analyzed with Prism GraphPad software. […]

T2 sequence (P05067 672-713 limits assumed): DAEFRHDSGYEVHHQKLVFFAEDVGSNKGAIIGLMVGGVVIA
T1 sequence (P05067 672-713 limits assumed): as above

With `O[C@H]1[C@H](O)[C@@H](O)[C@H](O)[C@@H](O)[C@H]1O` [myo-inositol] the “Aβ42 CT immunoreactivity” value [1] was “no effect”.
For `O[C@H]1[C@H](O)[C@@H](O)[C@H](O)[C@@H](O)[C@@H]1O` [SI, scyllo-inositol], the “% Intensity, Peak 1” value [2] was 0.7%, the “% Intensity, Peak 2” value [2] was 96.88% and the “% Mass, Peak 1” value [2] was 76%. For the same compound, the “% Mass, Peak 2” value [2] was 38%, the “MW-R, Peak 1” value [2] was 11.6 kDa and the “MW-R, Peak 2” value [2] was 527.1 kDa. The “Radius, Peak 1” value [2] was 2.5 nm, the “Radius, Peak 2” value [2] was “remained unchanged” and the “% Mass, Peak 1” value ([2]; listed as Ab42/SI) was 72.93%. The “% Mass, Peak 2” value ([2]; listed as Ab42/SI) was 38.75%, the “Radius, Peak 2” value ([2]; listed as Ab42/SI) was 21.4 nm and the CT immunoreactivity [3] was “statistically significant increase”. For the same compound, the NT immunoreactivity ([4]; addition to pre-formed Aβ42 oligomers) was “significant decrease” and the “Aβ42 CT immunoreactivity” value [1] was “dose dependent increase”.
`OC1C(O)C(O)C(O)C(O)C1O` (stereo not drawn) [chiro-inositol] was tested, and the “Aβ42 CT immunoreactivity” value [1] was “no effect”.
For “Ac-Leu-Pro(N-CH3)Phe-Phe-Asp-NH2 [Peptide IV]”, the NT immunosignal ([4]; FIG. 7B) was “significant decrease” and the CT immunoreactivity ([1]; FIG. 7A) was “dose-depended increase”.
